Test results taken from patent US9539237B2, “Compositions and methods for drug-sensitization or inhibition of a cancer cell” (The Texas A&M University System, priority 2012, dated 2017).

Assays:
[1] = test system: lymphoma aspirate from a dog with CHOP-resistant lymphoma; experiment: CHOP responsiveness of lymphoma aspirate from a dog (resazurin); assay type: cell-based
Protocol: A single lymphoma aspirate from a dog with CHOP-resistant lymphoma was tested for responsiveness to CHOP in the presence or absence of rifabutin. CHOP-responsiveness was measured by a decrease in fluorescence signal generated by resazurin.

[2] = test system: CHOP-sensitive CRL2631 cells; experiment: Prevention of the emergence of CHOP resistance in CRL2631 cells; assay type: cell-based, human; settings: half (0.5×) and full (1×) doses of CHOP, one week treatment
Protocol: The ability of rifabutin to prevent the emergence of CHOP-resistance was determined by treating CHOP-sensitive CRL2631 cells with either CHOP alone or CHOP+rifabutin for one week. Following treatment, the cells were grown in the absence of CHOP, then their sensitivity to CHOP was assayed by retreatment with CHOP, followed by counting of viable cells. […] A 1× CHOP dose in this experiment corresponds to final concentrations of the following components: 0.83 μM 4-hydroxycyclophosphamide [4HC, a pre-activated form of cyclophosphamide], 0.057 μM doxorubicin, 0.01 μM vincristine, and 0.186 μM prednisone.

CRL2631 cells = experiment: Collagen invasion 3D assay, CRL2631 cells; assay type: cell-based, human; settings: 10 uM Rifabutin in collagen matrix, 24 hours
Protocol: The effects of rifabutin on cell invasion was assessed in a collagen invasion 3D assay. Increased interest in the use of 3D culture systems has been motivated by accumulating evidence that 3D models better reflect the microenvironment of tumors and metastases and more accurately predict therapeutic response in vivo compared with conventional 2D assays. A collagen invasion 3D assay allows the rapid and quantitative assessment of invasiveness and a means to screen for drugs which alter the invasive phenotype of tumor cells.
The CHOP-resistant G3 cell line is much more invasive in a collage invasion 3D assay than its CHOP-sensitive parent cell line (CRL2631). Collagen matrices (1 mg/ml) were prepared as previously described in Su. S. C., et al., Molecular profile of endothelial invasion of three-dimensional collagen matrices: insights into angiogenic sprout induction in wound healing. Am. J. Physiol. […] Cell invasion density was quantified by counting fixed cultures under transmitted light using an Olympus CK2 inverted microscope equipped with eyepieces displaying a 10×10 ocular grid. For each condition, four random fields were selected and the number of invading cells per high power field (HPF) was counted manually at 10× magnification, corresponding to 1 mm^2 area. […]

[3] = test system: primary human fibroblasts; experiment: Comparative cytotoxicity on primary human fibroblasts; settings: FIG. 3A and 3B
total intracellular ROS = experiment: Intracellular ROS by CellROX staining and flow cytometry; assay type: cell-based; settings: CHOP-resistant (G3) cells, 10 uM rifabutin, FIG. 35
From the text: Cells were then stained with the fluorescent ROS indicator, CellROX, and subjected to flow cytometry to quantitate total intracellular ROS.
The electron transport chain (ETC) is known to be a primary generator of ROS in the cell. Most of the ROS is generated by Complexes I and III of the ETC. Inhibition of Complex I results in electrons piling up and leaking to react with oxygen to produce ROS.
MDR/P-gp activity is closely associated with calcium status in the cell, so calcium modulators were tested for effects on ROS. […] Relatively Dox-sensitive lymphoma (CRL2631, 10S, WSU) and ovarian carcinoma (OVCAR8) and more Dox-resistant lymphoma (G3R, 10R, WSUR) and ovarian carcinoma (ADR) were treated with 10 uM […] for 2 hrs. […] Cells were co-stained with the cell-permeable red fluorescent ROS indicator, CellROX, and cell-permeable green fluorescent calcium indicator. Fluo-4AM, and then subjected to flow cytometry to quantitate changes in ROS and calcium levels.
All samples were analyzed at the same time in flow cytometry.

ABCB1 pumps = ABCB1 pumps (Homo sapiens, UniProt P08183); settings: NCI/ADR-RES and G3 cells
Sequence of ABCB1 pumps (P08183 whole entry): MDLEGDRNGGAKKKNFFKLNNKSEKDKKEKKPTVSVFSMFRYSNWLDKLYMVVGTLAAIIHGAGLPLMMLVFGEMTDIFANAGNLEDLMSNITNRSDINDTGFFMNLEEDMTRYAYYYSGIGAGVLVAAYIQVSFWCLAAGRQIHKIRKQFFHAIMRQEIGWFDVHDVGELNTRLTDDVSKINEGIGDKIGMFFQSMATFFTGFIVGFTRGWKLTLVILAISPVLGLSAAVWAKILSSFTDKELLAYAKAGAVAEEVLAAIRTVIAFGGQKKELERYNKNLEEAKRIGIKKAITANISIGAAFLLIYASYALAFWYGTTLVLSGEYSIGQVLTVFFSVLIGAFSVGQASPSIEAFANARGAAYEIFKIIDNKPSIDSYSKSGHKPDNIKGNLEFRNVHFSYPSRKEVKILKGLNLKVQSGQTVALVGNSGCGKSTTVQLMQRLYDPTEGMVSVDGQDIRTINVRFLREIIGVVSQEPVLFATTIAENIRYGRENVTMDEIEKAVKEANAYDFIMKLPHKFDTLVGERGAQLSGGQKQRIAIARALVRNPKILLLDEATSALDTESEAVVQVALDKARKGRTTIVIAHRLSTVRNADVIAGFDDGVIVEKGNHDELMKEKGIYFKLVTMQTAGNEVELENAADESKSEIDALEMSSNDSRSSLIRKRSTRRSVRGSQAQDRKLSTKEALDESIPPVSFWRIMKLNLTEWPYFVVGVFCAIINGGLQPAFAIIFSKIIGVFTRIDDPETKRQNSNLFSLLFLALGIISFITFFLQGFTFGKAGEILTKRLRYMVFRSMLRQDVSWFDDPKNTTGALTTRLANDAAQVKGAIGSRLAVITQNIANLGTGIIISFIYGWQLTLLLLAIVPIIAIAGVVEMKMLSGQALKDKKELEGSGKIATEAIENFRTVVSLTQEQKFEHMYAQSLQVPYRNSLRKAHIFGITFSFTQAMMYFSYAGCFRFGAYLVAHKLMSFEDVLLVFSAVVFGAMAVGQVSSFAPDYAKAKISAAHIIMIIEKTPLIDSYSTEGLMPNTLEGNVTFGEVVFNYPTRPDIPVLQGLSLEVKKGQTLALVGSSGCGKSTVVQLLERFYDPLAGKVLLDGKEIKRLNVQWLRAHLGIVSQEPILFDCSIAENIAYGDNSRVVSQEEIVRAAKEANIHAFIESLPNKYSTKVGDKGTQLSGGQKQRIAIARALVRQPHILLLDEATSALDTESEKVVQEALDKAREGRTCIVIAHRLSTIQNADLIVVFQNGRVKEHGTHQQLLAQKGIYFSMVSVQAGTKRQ

[4] = test system: CHOP-sensitive NHL cell line CRL2631; experiment: Cell growth assay (resazurin fluorescence) on CRL2631 cells; assay type: cell-based, human
From the text: Several human cell lines were utilized as in vitro models of NHL, including the CRL2631 line obtained from the American Type Culture Collection (ATCC). CRL2631 was established from peripheral blood leukocytes (PBL) of a patient with DLBCL.
In these experiments, the following cell lines were used: CHOP-resistant NHL cell line G3, CHOP-sensitive NHL cell line CRL2631, the multi-drug resistant sarcoma cell line MES-SA-Dx5; multi-drug-resistant breast cancer cell line MDA-MB-231, multi-drug resistant ovarian carcinoma cell line SK-OV3, multi-drug resistant ovarian cancer cell line NCI/ADR-RES, drug-sensitive ovarian cancer cell line OVCAR-5, and multi-drug resistant ovarian cancer cell line OVCAR-3.
Additional cell lines used include: ovarian cancer OVCAR-8. T lymphoblastoid leukemia MOLT-4, dexamethasone-resistant multiple myeloma MM.1R, myeloid leukemia cells HL-60, osteosarcoma cells U-2 OS, and myeloma RPMI 8226.

Akt = experiment: Effect on Akt; assay type: cell-based
From the text: Although some drug-sensitization or cancer cell inhibition effects may be mediated by the ROS pathway, compositions and methods of the present disclosure may act via other cellular pathways alternatively to or in addition to the Akt/14-3-3ζ/ETC/ROS network. This may be particularly true with respect to drug-sensitization to chemotherapeutics that operate in a different manner than CHOP. For example, ROS may affect the mitochondrial-directed Bcl-2 apoptosis pathway as well. […] Accordingly, it appears likely that an initial ROS induction event may occur, followed by a secondary downstream effect downregulating Akt. In CHOP-resistant cells, Akt is constitutively active thereby increasing Complex I activity resulting in decreases in ROS. Induction of ROS by compositions and methods of the present disclosure will further promote drug sensitivity in the resistant cancer cell by downregulating the Akt pathway.

`CO[C@H]1/C=C/O[C@@]2(C)Oc3c(C)c(O)c4c(c3C2=O)C2=NC3(CCN(CC(C)C)CC3)NC2=C(NC(=O)/C(C)=C\C=C\[C@H](C)[C@H](O)[C@@H](C)[C@@H](O)[C@@H](C)[C@H](OC(C)=O)[C@@H]1C)C4=O` [Rifabutin, rifabutin] was tested, and the “Sensitivity of aspirated lymphoma cells to CHOP” value ([1]; 5 μM rifabutin) was “significantly enhanced the sensitivity”, the “Effect on cell viability in the absence of CHOP” value ([1]; absence of CHOP) was “no effect” and the “Emergence of CHOP-resistant cells” value [2] was “significantly repress”. The “Reduction of the amount of invasion” value (CRL2631 cells) was “Less of this effect”, the “Toxicity to normal cells” value [3] was “not toxic” and the “Induction of ROS” value (total intracellular ROS) was “rapidly induces ROS”. The “Inhibition of efflux pumps” value (ABCB1 pumps) was “clear inhibition”, the “Sensitivity of cells to CHOP” value ([4]; CHOP-sensitive cells, relative to a control drug, FIG. 2B) was “enhanced the sensitivity” and the “Effect on growth of cells in the absence of CHOP” value ([4]; CRL2631 cells, FIG. 2A) was “did not affect the growth”. For the same compound, the “Sensitization of low-ROS cell population to CHOP” value ([4]; low-ROS CRL2631 cells, 10 uM rifabutin, FIG. 34) was “sensitized to CHOP” and the “Time for the effect on Akt” value (Akt) was “at least 18 hours”.
